Assay results taken from patent US8431596B2 (Cancer Research Technology Limited, priority 2007, dated 2013).

Target: T1, AXL (human catalytic domain) (Homo sapiens, UniProt P30530)
T1 construct: purchased Upstate Ltd. 14-512
T1 sequence (P30530 473-894): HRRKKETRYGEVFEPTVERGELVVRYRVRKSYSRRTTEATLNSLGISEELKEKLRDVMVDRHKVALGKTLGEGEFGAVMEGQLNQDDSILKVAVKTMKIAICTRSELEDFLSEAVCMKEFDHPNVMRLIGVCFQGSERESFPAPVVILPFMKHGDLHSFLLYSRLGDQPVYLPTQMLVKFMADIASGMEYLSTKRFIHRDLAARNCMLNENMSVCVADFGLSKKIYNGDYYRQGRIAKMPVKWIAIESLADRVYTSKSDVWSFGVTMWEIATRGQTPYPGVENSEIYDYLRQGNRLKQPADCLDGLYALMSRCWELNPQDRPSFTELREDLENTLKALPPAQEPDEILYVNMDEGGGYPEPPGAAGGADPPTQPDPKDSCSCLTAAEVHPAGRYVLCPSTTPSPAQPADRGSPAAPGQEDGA
Test: AXL (human catalytic domain) Enzyme Activity Assay (IMAP fluorescence polarisation)
Type: biochemical
Procedure, shortened: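 Recombinant human AXL isoform 1 (aa473-894; final 15 nM) phosphorylated 100 nM fluorescein-CSK-tide with 150 μM ATP (KM) in HEPES pH 7.0/MgCl2/DTT buffer for 60 min at room temperature. IMAP fluorescence polarisation read after overnight binding; IC50 from 10-point 4-parameter logistic fits.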

[1] = further data set (WW-001 through WW-169, XX-001 through XX-469, YY-001 through YY-016, ZZ-001 through ZZ-003), 150 μM ATP
[2] = first data set, recombinant AXL isoform 1 aa473-894, 150 μM ATP

SMILES	IC50 [1]	IC50 [2]
Clc1cccc(CNc2ccc(-c3cccc4nc(Nc5ccc(OCCN6CCCC6)cc5)nn34)cc2)c1 [XX-223, {5-[4-(3-Chloro-benzylamino)-phenyl]-[1,2,4]triazolo[1,5-a]pyridin-2-yl}-[4-(2-pyrrolidin-1-yl-ethoxy)-phenyl]-amine]	1000 to 10000 nM	–
c1cc(-c2cn[nH]c2)cc(-c2cccc3nc(Nc4ccc(OCCN5CCCC5)cc4)nn23)c1 [XX-167]	≤ 100 nM	–
CC(C)Oc1cccc(-c2cccc3nc(NC(=O)C4CC4)nn23)c1 [WW-152]	1000 to 10000 nM	1000 to 10000 nM
c1cc(-c2ccc(OCC3CCCO3)cc2)n2nc(Nc3ccc(OCCN4CCCC4)cc3)nc2c1 (stereo not shown) [XX-146]	100 to 1000 nM	–
c1cc(-c2ccc3c(c2)OCCO3)n2nc(Nc3ccc(OCCCN4CCCC4)cc3)nc2c1 [XX-312]	≤ 100 nM	–
CCOc1cccc(-c2cccc3nc(Nc4ccc(OCCN5CCCC5)cc4)nn23)c1 [XX-337]	100 to 1000 nM	–
O=C(CSc1ccc(Nc2nc3cccc(-c4ccc5c(c4)OCCO5)n3n2)cc1)N1CCCC1 [XX-160]	1000 to 10000 nM	–
C#CCOc1ccc(-c2cccc3nc(Nc4ccc(OCCN5CCCC5)cc4)nn23)cc1 [XX-148]	100 to 1000 nM	–
COCc1ccc(-c2cccc3nc(NC(=O)C4CC4)nn23)cc1 [WW-016]	1000 to 10000 nM	1000 to 10000 nM
COc1ccc(-c2cccc3nc(Nc4ccc(OCCNCc5ccc(N)cc5)cc4)nn23)cc1 [XX-034]	100 to 1000 nM	< 1000 nM
CC(=O)Nc1ccc(-c2cccc3nc(Nc4ccc(OCCN5CCCC5)cc4)nn23)cc1 [XX-205]	100 to 1000 nM	–
FC(F)(F)c1cccc(Cn2cc(-c3cccc4nc(Nc5ccc(OCCN6CCCC6)cc5)nn34)cn2)c1 [XX-273]	100 to 1000 nM	–
O=C(Nc1nc2cccc(NCc3ccccc3Cl)n2n1)C1CC1 [WW-082]	1000 to 10000 nM	1000 to 10000 nM
CCN(CC)CCOc1cc(Nc2nc3cccc(-c4ccc5c(c4)OCO5)n3n2)ccn1 [XX-358]	100 to 1000 nM	–
CCN(CC)CCOc1cc(Nc2nc3cccc(-c4ccc5[nH]ccc5c4)n3n2)ccn1 [XX-363]	≤ 100 nM	–
CNc1ccc(-c2cccc3nc(NC(=O)C4CC4)nn23)cc1 [WW-120, Cyclopropanecarboxylic acid [5-(4-methylamino-phenyl)-[1,2,4]triazolo[1,5-a]pyridin-2-yl]-amide]	1000 to 10000 nM	1000 to 10000 nM
CCN(CC)CCOc1cc(Nc2nc3cccc(-c4cnn(S(=O)(=O)CC(C)C)c4)n3n2)ccn1 [XX-389]	100 to 1000 nM	–
CN(C)CCOc1ccc(Nc2nc3cccc(-c4ccc5occc5c4)n3n2)cc1 [XX-051]	≤ 100 nM	< 1000 nM
CCCn1cc(-c2cccc3nc(NC(=O)C4CC4)nn23)cn1 [WW-124, Cyclopropanecarboxylic acid [5-(1-propyl-1H-pyrazol-4-yl)-[1,2,4]triazolo[1,5-a]pyridin-2-yl]-amide]	1000 to 10000 nM	1000 to 10000 nM
CCCCNC(=O)c1cccc(-c2cccc3nc(Nc4ccc(OCCN5CCCC5)cc4)nn23)c1 [XX-301]	1000 to 10000 nM	–
CCOc1ccc(-c2cccc3nc(NC(=O)C4CC4)nn23)cc1 [WW-035]	100 to 1000 nM	< 1000 nM
CCOc1ccc(-c2nccc3nc(Nc4ccc(OCCN5CCCC5)c(OC)c4)nn23)cc1 [YY-006]	100 to 1000 nM	–
Nc1nnc(SCCn2cc(-c3cccc4nc(Nc5ccc(OCCN6CCCC6)cc5)nn34)cn2)[nH]1 [XX-327, (5-{1-[2-(5-Amino-4H-[1,2,4]triazol-3-ylsulfanyl)-ethyl]-1H-pyrazol-4-yl}-[1,2,4]triazolo[1,5-a]pyridin-2-yl)-[4-(2-pyrrolidin-1-yl-ethoxy)-phenyl]-amine]	1000 to 10000 nM	–
CN(C)CCNC(=O)c1ccc(Nc2nc3cccc(-c4ccc5c(c4)OCO5)n3n2)cc1 [XX-087]	100 to 1000 nM	< 1000 nM

SMILES	IC50 [1]	IC50 [2]
O=C(Nc1nc2cccc(-c3ccc(C(F)(F)F)cc3)n2n1)C1CC1 [WW-031]	1000 to 10000 nM	1000 to 10000 nM
CN1CCOc2cc(-c3cccc4nc(Nc5ccc(OCCN6CCCC6)cc5)nn34)ccc21 [XX-093]	100 to 1000 nM	–
CCN(CC)CCOc1ccc(Nc2nc3cccc(-c4ccc5c(c4)OCCO5)n3n2)cn1 [XX-162]	≤ 100 nM	–
COc1ccc(-c2cccc3nc(Nc4cccc(OCCn5ccnc5)c4)nn23)cc1 [XX-015, [3-(2-Imidazol-1-yl-ethoxy)-phenyl]-[5-(4-methoxy-phenyl)-[1,2,4]triazolo[1,5-a]pyridin-2-yl]-amine]	100 to 1000 nM	< 1000 nM
c1cc(-c2ccc(Cn3cccn3)cc2)n2nc(Nc3ccc(OCCN4CCCC4)cc3)nc2c1 [XX-270]	100 to 1000 nM	–
CCN(CC)CCOc1ccc(Nc2nc3cccc(-c4ccc5c(c4)OCCO5)n3n2)cc1 [XX-075]	≤ 100 nM	< 1000 nM
CCN(CC)CC(=O)Nc1ccc(Nc2nc3cccc(-c4ccc5c(c4)OCCO5)n3n2)cc1 [XX-119]	100 to 1000 nM	–
Cc1ccc(S(=O)(=O)Nc2ccc(-c3cccc4nc(Nc5ccc(OCCN6CCCC6)cc5)nn34)cc2)cc1 [XX-271]	100 to 1000 nM	–
COc1ccc(-c2cccc3nc(Nc4ccc(N(C)C(=O)C(C)N5CCOCC5)cc4)nn23)cc1 (stereo not shown) [XX-368]	100 to 1000 nM	–
CN(C)CCOc1cccc(Nc2nc3cccc(-c4ccc5c(c4)OCCO5)n3n2)c1 [XX-074]	≤ 100 nM	< 1000 nM
Cc1cc(-c2cccc3nc(Nc4ccc(OCCN5CCCC5)cc4)nn23)ccc1N(C)C [XX-094]	100 to 1000 nM	–
Cc1cc(Nc2nc3cccc(-c4ccc5c(c4)OCCO5)n3n2)ccc1OCC(N)=O [XX-071]	1000 to 10000 nM	1000 to 10000 nM
CC(Nc1cccc2nc(NC(=O)C3CC3)nn12)c1ccccc1 (stereo not shown) [WW-113]	1000 to 10000 nM	1000 to 10000 nM
CC(=O)Nc1cccc(-c2cccc3nc(NC(=O)C4CC4)nn23)c1 [WW-002, Cyclopropanecarboxylic acid [5-(3-acetylamino-phenyl)-[1,2,4]triazolo [1,5-a]pyridin-2-yl]-amide]	1000 to 10000 nM	1000 to 10000 nM
CS(=O)(=O)Nc1cccc(-c2cccc3nc(NC(=O)C4CC4)nn23)c1 [WW-011, Cyclopropanecarboxylic acid [5-(3-methanesulfonylamino-phenyl)-[1,2,4]triazolo[1,5-a]pyridin-2-yl]-amide]	1000 to 10000 nM	1000 to 10000 nM
COc1ccc(-c2cccc3nc(Nc4ccc(N)cc4)nn23)cc1 [XX-007]	≤ 100 nM	< 1000 nM
CC(C)Cn1cc(-c2cccc3nc(Nc4ccc(OCCN5CCCC5)cc4)nn23)cn1 [XX-274]	1000 to 10000 nM	–
CN(C)CCNC(=O)c1cccc(Nc2nc3cccc(-c4ccc5occc5c4)n3n2)c1 [XX-085]	≤ 100 nM	< 1000 nM
c1cc(-c2ccc3c(c2)OCCO3)n2nc(Nc3ccc(SCCN4CCCC4)cc3)nc2c1 [XX-226]	100 to 1000 nM	–
O=C(Nc1nc2cccc(-c3ccc(-c4ccccc4)cc3)n2n1)C1CC1 [WW-063]	100 to 1000 nM	< 1000 nM
c1cc(NCc2ccco2)cc(-c2cccc3nc(Nc4ccc(OCCN5CCCC5)cc4)nn23)c1 [XX-257]	100 to 1000 nM	–
c1cc(-c2ccc3c(c2)CCO3)n2nc(Nc3ccc(N4CCNCC4)cc3)nc2c1 [XX-059]	100 to 1000 nM	< 1000 nM
O=C(Nc1nc2cccc(-c3cccc(Cl)c3)n2n1)C1CC1 [WW-004, Cyclopropanecarboxylic acid [5-(3-chloro-phenyl)-[1,2,4]triazolo[1,5-a]pyridin-2-yl]-amide]	1000 to 10000 nM	1000 to 10000 nM
FC(F)(F)c1ccccc1COc1cccc(-c2cccc3nc(Nc4ccc(OCCN5CCCC5)cc4)nn23)c1 [XX-402]	1000 to 10000 nM	–
